Source: EP0556789A2, “Substituted biphenyl derivatives, therapeutic agents containing them and process for their preparation” (Dr. Karl Thomae GmbH, priority 1992, dated 1993)

molecular target: T1, Angiotensin II-Rezeptor (Rattus norvegicus, UniProt P25095); test: Angiotensin II receptor binding ([125I]-angiotensin II displacement, rat lung homogenate); set-up: species or system Ratte; conditions: Rattenlunge homogenate, 50 pM [125I]-Angiotensin II, 60 min at 37 °C
T1 construct: Das Gewebe (Rattenlunge) wird in Tris-Puffer; from tissue; host or cells: rat lung (membrane pellet of the homogenate)
T1 sequence (P25095 1-359): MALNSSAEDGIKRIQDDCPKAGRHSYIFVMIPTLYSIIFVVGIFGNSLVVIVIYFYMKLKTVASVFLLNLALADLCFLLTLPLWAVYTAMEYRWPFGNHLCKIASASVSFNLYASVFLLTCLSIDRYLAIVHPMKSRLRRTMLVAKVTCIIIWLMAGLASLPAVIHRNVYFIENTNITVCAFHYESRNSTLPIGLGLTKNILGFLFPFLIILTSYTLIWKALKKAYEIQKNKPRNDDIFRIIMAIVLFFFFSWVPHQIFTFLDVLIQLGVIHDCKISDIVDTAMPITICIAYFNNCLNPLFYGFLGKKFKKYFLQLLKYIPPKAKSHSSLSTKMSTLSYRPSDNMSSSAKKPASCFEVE
Description: Methodenbeschreibung Angiotensin II-Rezeptorbindung
Das Gewebe (Rattenlunge) wird in Tris-Puffer (50 mMol Tris, 150 mMol NaCI, 5 mMol EDTA, pH 7.40) homogenisiert und zweimal je 20 Min. bei 20.000 x g zentrifugiert. Das endgültige Pellet wird in Inkubations-Puffer (50 mMol Tris, 5 mMol MgCI2, 0,2 % BSA, pH 7.40) 1:75, bezogen auf das Feuchtgewicht des Gewebes, resuspendiert. Je 0,1 ml Homogenat wird für 60 Min. bei 37 ° C mit 50 pM [125']-Angiotensin II (NEN, Dreieich, FRG) und steigenden Konzentrationen der Testsubstanz in einem Gesamtvolumen von 0,25 ml inkubiert. Die Inkubation wird durch rasche Filtration durch Glasfiber-Filtermatten beendet. Die Filter werden je 4 ml eiskaltem Puffer (25 mMol Tris, 2.5 mMol MgCI2, 0,1 % BSA, pH 7,40) gewaschen. Die gebundene Radioaktivität wird in einem Gamma-Counter ermittelt. Aus der Dosis-Wirkungskurve wird der entsprechende 1C50-Wert ermittelt.

Row | Structure (SMILES) | IC50
1 | CCCc1nc2c(C)cc(-c3nc4ccccc4n3C)cc2n1Cc1ccc(-c2ccccc2)c(CCC(=O)O)c1 [Substanz C, 2-n-Propyl-4-methyl-6-(1-methyl-benzimidazol-2-yl)-1-[3-(2-hydroxycarbonyl-ethyl)-4-phenyl-benzyl]-benzimidazol] | 18 nM
2 | CCc1nc2c(C)cc(C)nc2n1Cc1ccc(-c2ccccc2)c(Cc2nnn[nH]2)c1 [Substanz D, 2-Ethyl-5,7-dimethyl-3-[3-(tetrazol-5-yl-methyl)-4-phenyl-benzyl]-imidazo[4,5-b]pyridin] | 73 nM
3 | CCCc1nc2c(C)cc(-c3cn(C(C)C)cn3)cc2n1Cc1ccc(-c2ccccc2)c(CCc2nnn[nH]2)c1 [Substanz E, 2-n-Propyl-4-methyl-6-(1-isopropyl-imidazol-4-yl)-1-[3-(2-tetrazol-5-yl-ethyl)-4-phenyl-benzyl]-benzimidazol] | 6.9 nM

Results, then the molecule that gave them:

Row | IC50 | Structure (SMILES)
4 | 370 nM | CCCc1nc2c(C)cccc2n1Cc1ccc(-c2ccccc2)c(Cc2nnn[nH]2)c1 [Substanz A, 2-n-Propyl-4-methyl-1-[3-(tetrazol-5-yl-methyl)-4-phenyl-benzyl]-benzimidazol]
5 | 270 nM | CCCc1nc2c(C)cccc2n1Cc1ccc(-c2ccccc2)c(CCC(=O)O)c1 [Substanz B, 2-n-Propyl-4-methyl-1-[3-(2-hydroxycarbonyl-ethyl)-4-phenyl-benzyl]-benzimidazol]
